Tested on: HBV
Experiment: HBsAg levels in serum of AAV/HBV mice (CLIA)
Assay type: in vivo, C57BL/6 mice
Design: HBsAg levels in serum (Average ± SD): scale not given here
From the text: The AAV-HBV mouse model is generated by injecting C57BL/6 mice with recombinant adeno-associated virus harboring a replicable HBV genome (AAV-HBV). The rAAV8-1.3 HBV ayw virus stock was purchased from Beijing FivePlus Molecular Medicine Institute (Beijing, China). The animals (male, aged 4-5 weeks upon arrival) were purchased from SLAC Laboratory Animal Co. Ltd (Shanghai, China), acclimatized in the animal facility for 5-7 days, and then injected with 1×10^11 vector genome of AAV-HBV (diluted in 200 μL of PBS) through the tail vein. Persistence expression of HBV genome can be established after three weeks, with high levels of HBV viral markers including HBV DNA, HBsAg, and HBeAg in mouse serum. With stable HBV viremia and competent immune system of the C57BL/6 mice, the AAV-HBV mouse model was used to evaluate the in vivo anti-HBV efficacy of the compounds. The in-life part of the AAV-HBV study was conducted through contracted service at Covance Pharmaceutical Research and Development (Shanghai) Co. Ltd. (Covance Shanghai) and the post-life analysis using the serum was performed internally at Roche Innovation Center Shanghai (RICS).
Seven days before compound treatment, blood samples were collected for serum preparation (˜15 μL), and based on HBV DNA, HBsAg levels in serum and body weight, the AAV-HBV infected animals were stratified into the different treatment groups.
Saline (Group 01) and anti-HBV ASO of CMP ID NO: 15_1 at 1.5 or 7.5 mg/kg were dosed sub subcutaneously once a week during Day 0-49 on Days 0, 7, 14, 21, 28, 35, 42 and 49. TLR7 agonist of CMP ID NO: VI 100 mg/kg was administered by oral gavage once every other day during Day 0-55 (QOD) or once weekly during Day 0-49 on Days 0, 7, 14, 21, 28, 35, 42 and 49 (QW). The animals were weekly bled via retro-orbital sinus for sample collection throughout the study.
Serum HBsAg levels were determined in the serum of infected AAV-HBV mouse using the HBsAg chemoluminescence immunoassay (CLIA) (Autobio diagnostics Co. Ltd., Zhengzhou, China, Cat. no. CL0310-2), according to the manufacturer's protocol. Briefly, 50 μl of serum was transferred to the antibody coated microtiter plate and 50 μl of enzyme conjugate reagent was added. The plate was incubated for 60 min on a shaker at room temperature before all wells were washed six times with washing buffer using an automatic washer. 25 μl of substrate A and then 25 μl of substrate B was added to each well. The plate was incubated for 10 min at RT before luminescence was measured using an Envision luminescence reader (Perkin Elmer). HBsAg is given in the unit IU/ml; where 1 ng HBsAg=1.14 IU.
To evaluate the combination of the anti-HBV ASO and the TLR7 agonist in an in vivo system, a mouse model of chronic HBV infection was used. In the AAV/HBV mouse model described in the Materials and Method a persistent HBV infection is established resulting in expression of viral markers (HBsAg, HBeAg, HBV DNA) detectable in plasma. The effect on these viral markers upon treatment with the anti-HBV ASO of CMP ID NO: 15_1 (table 2, and FIG. 4) dosed at 1.5 mg/kg or 7.5 mg/kg and the TLR7 agonist of CMP ID NO: VI (table 3) dosed with […] every other day (QOD) or once weekly (QW) in monotherapy or in combination has been evaluated.

## CC[C@H](OC(C)=O)[C@@H]1C[C@@H](O)[C@H](n2c(=O)sc3cnc(N)nc32)O1 [CMP ID NO: VI, [(1S)-1-[(2S,4R,5R)-5-(5-amino-2-oxo-thiazolo[4,5-d]pyrimidin-3-yl)-4-hydroxy-tetrahydrofuran-2-yl]propyl] acetate]
D56, 15_1 7.5 mg/kg weekly, VI 100 mg/kg QW, or combination of both
  HBsAg levels in serum (Average ± SD): 2.13 ± 1.00
D63, 15_1 1.5 mg/kg weekly, VI 100 mg/kg QOD, or combination of both
  HBsAg levels in serum (Average ± SD): 1.61 ± 0.96
D63, 15_1 1.5 mg/kg weekly, VI 100 mg/kg QW, or combination of both
  HBsAg levels in serum (Average ± SD): 2.43 ± 1.14
D63, 15_1 7.5 mg/kg weekly, VI 100 mg/kg QOD, or combination of both
  HBsAg levels in serum (Average ± SD): 1.61 ± 0.96
D63, 15_1 7.5 mg/kg weekly, VI 100 mg/kg QW, or combination of both
  HBsAg levels in serum (Average ± SD): 2.43 ± 1.14
D70, 15_1 1.5 mg/kg weekly, VI 100 mg/kg QOD, or combination of both
  HBsAg levels in serum (Average ± SD): 1.9 ± 1.23
D70, 15_1 1.5 mg/kg weekly, VI 100 mg/kg QW, or combination of both
  HBsAg levels in serum (Average ± SD): 2.48 ± 1.23
D70, 15_1 7.5 mg/kg weekly, VI 100 mg/kg QOD, or combination of both
  HBsAg levels in serum (Average ± SD): 1.90 ± 1.23
D70, 15_1 7.5 mg/kg weekly, VI 100 mg/kg QW, or combination of both
  HBsAg levels in serum (Average ± SD): 2.48 ± 1.23
D77, 15_1 1.5 mg/kg weekly, VI 100 mg/kg QOD, or combination of both
  HBsAg levels in serum (Average ± SD): 1.91 ± 1.18
D77, 15_1 1.5 mg/kg weekly, VI 100 mg/kg QW, or combination of both
  HBsAg levels in serum (Average ± SD): 2.41 ± 1.16
D77, 15_1 7.5 mg/kg weekly, VI 100 mg/kg QOD, or combination of both
  HBsAg levels in serum (Average ± SD): 1.91 ± 1.18
D77, 15_1 7.5 mg/kg weekly, VI 100 mg/kg QW, or combination of both
  HBsAg levels in serum (Average ± SD): 2.41 ± 1.16
D84, 15_1 1.5 mg/kg weekly, VI 100 mg/kg QOD, or combination of both
  HBsAg levels in serum (Average ± SD): 2.25 ± 1.16
D84, 15_1 1.5 mg/kg weekly, VI 100 mg/kg QW, or combination of both
  HBsAg levels in serum (Average ± SD): 2.66 ± 1.15
D84, 15_1 7.5 mg/kg weekly, VI 100 mg/kg QOD, or combination of both
  HBsAg levels in serum (Average ± SD): 2.25 ± 1.16
D84, 15_1 7.5 mg/kg weekly, VI 100 mg/kg QW, or combination of both
  HBsAg levels in serum (Average ± SD): 2.66 ± 1.15
D91, 15_1 1.5 mg/kg weekly, VI 100 mg/kg QOD, or combination of both
  HBsAg levels in serum (Average ± SD): 2.05 ± 1.35
D91, 15_1 1.5 mg/kg weekly, VI 100 mg/kg QW, or combination of both
  HBsAg levels in serum (Average ± SD): 2.66 ± 1.44
D91, 15_1 7.5 mg/kg weekly, VI 100 mg/kg QOD, or combination of both
  HBsAg levels in serum (Average ± SD): 2.05 ± 1.35
D91, 15_1 7.5 mg/kg weekly, VI 100 mg/kg QW, or combination of both
  HBsAg levels in serum (Average ± SD): 2.66 ± 1.44
D98, 15_1 1.5 mg/kg weekly, VI 100 mg/kg QOD, or combination of both
  HBsAg levels in serum (Average ± SD): 2.36 ± 1.26
D98, 15_1 1.5 mg/kg weekly, VI 100 mg/kg QW, or combination of both
  HBsAg levels in serum (Average ± SD): 2.83 ± 1.16
D98, 15_1 7.5 mg/kg weekly, VI 100 mg/kg QOD, or combination of both
  HBsAg levels in serum (Average ± SD): 2.36 ± 1.26
D98, 15_1 7.5 mg/kg weekly, VI 100 mg/kg QW, or combination of both
  HBsAg levels in serum (Average ± SD): 2.83 ± 1.16
D105, 15_1 1.5 mg/kg weekly, VI 100 mg/kg QOD, or combination of both
  HBsAg levels in serum (Average ± SD): 2.41 ± 1.18
D105, 15_1 1.5 mg/kg weekly, VI 100 mg/kg QW, or combination of both
  HBsAg levels in serum (Average ± SD): 2.81 ± 1.1
D105, 15_1 7.5 mg/kg weekly, VI 100 mg/kg QOD, or combination of both
  HBsAg levels in serum (Average ± SD): 2.41 ± 1.18
D105, 15_1 7.5 mg/kg weekly, VI 100 mg/kg QW, or combination of both
  HBsAg levels in serum (Average ± SD): 2.81 ± 1.10
D111, 15_1 1.5 mg/kg weekly, VI 100 mg/kg QOD, or combination of both
  HBsAg levels in serum (Average ± SD): 2.69 ± 1.38
D111, 15_1 1.5 mg/kg weekly, VI 100 mg/kg QW, or combination of both
  HBsAg levels in serum (Average ± SD): 3.1 ± 1.12
D111, 15_1 7.5 mg/kg weekly, VI 100 mg/kg QOD, or combination of both
  HBsAg levels in serum (Average ± SD): 2.69 ± 1.38
D111, 15_1 7.5 mg/kg weekly, VI 100 mg/kg QW, or combination of both
  HBsAg levels in serum (Average ± SD): 3.10 ± 1.12
TLR7 agonist alone, FIG. 10A
  initial rate of reduction in HBsAg: slow initial rate of reduction in HBsAg
TLR7 agonist alone, FIG. 10A (100 mg/kg QOD)
  time of lowest HBsAg: 42 days
TLR7 agonist at any of the doses
  suppression of HBsAg: not capable of suppressing HBsAg to a level below the detection limit

— patent US20230123601A1, “PHARMACEUTICAL COMBINATION OF ANTIVIRAL AGENTS TARGETING HBV AND/OR AN IMMUNE MODULATOR FOR TREATMENT OF HBV” (priority 2019, published 2023)
